In US20250249098A1, “CRYOPRESERVATION OF NK CELL PRODUCTS FOR OFF-THE-SHELF IMMUNOTHERAPY” (BOARD OF REGENTS, THE UNIVERSITY OF TEXAS SYSTEM, priority 2022, published 2025):

Legend:
[1] = test system: SKOV3 cells and/or UMRC3 cells; assay: xCELLigence impedance assay, thawed iC9/CD27 CAR/IL-15-NK cells; format: cell-based; settings: pre-cryopreservation treatment at 1 micromolar; E:T 2:1; vs no pre-treatment
Procedure: The ovarian cancer cell line (SKOV3) (FIG. 16A) and renal cell carcinoma cell line (UMRC3) (FIG. 16B), were grown in 96 well RTCA E-Plates overnight.

[2] = test system: A375 cells and/or Saos-2 cells; assay: xCELLigence impedance assay, thawed NYESO-TCR-NK cells; settings: pre-cryopreservation treatment at 1 micromolar; E:T 2:1; vs no pre-treatment
Procedure: As shown in FIGS. 17A-17C, addition of various tyrosine kinase inhibitors prior to freezing enhanced the antitumor cytotoxicity of TCR-NK cells post-thaw against solid cancer, as determined by xCELLigence impedance assays. The melanoma cell line (A375) (FIG. 17A) and osteosarcoma cell line (Saos-2) (FIG. 17B), were grown in 96 well RTCA E-Plates overnight. The next day, frozen NYESO targeting TCR-NK cells that were not treated or were treated pre-cryopreservation with a tyrosine kinase inhibitor (Dasatinib, Bosutinib, Nilotinib, or Saracatinib; at a final concentration of 1 micromolar) were thawed and added at 2:1 effector to target (E:T) ratio. The cancer cell growth was measured continuously over time (X axis) by the xCELLigence device and represented as normalized cell index (Y axis).

CAR-NK cells [3] = assay: Post-thaw CAR expression of CAR-NK cells by flow cytometry; format: cell-based, human
Procedure: (§1) CAR-NK cells were isolated, pre-activated, expanded, and treated with Dasatinib for 24, 48, or 72 hours prior to cryopreservation as described in Example 1 (or not treated with Dasatinib as control). Immediately prior to cryopreservation, CAR-NK cells were washed to remove the deactivating agent.

CAR-NK cells [4] = assay: Post-thaw viability of CAR-NK cells by flow cytometry (Annexin V / cell death marker); format: cell-based, human
Procedure: as §1

U266 cells = assay: Chromium release assay, thawed NYESO-TCR-NK cells; format: cell-based; settings: pre-cryopreservation treatment; E:T 2:1, 1:1, 0.5:1, 0.25:1; vs no pre-treatment
Procedure: After four hours, chromium release was measured, which corresponded to cancer cell death.

[5] = 24 h treatment prior to cryopreservation
[6] = 48 h treatment prior to cryopreservation

| Structure (SMILES) | cytotoxicity of thawed CAR-NK cells (normalized cell index) [1] | cytotoxicity of thawed TCR-NK cells (normalized cell index) [2] | CAR Mean Fluorescence Intensity (MFI) (CAR-NK cells [3]; [5]) | percentage of cells that are CAR positive (CAR-NK cells [3]; [5]) [%] | CAR Mean Fluorescence Intensity (MFI) (CAR-NK cells [3]; [6]) | percentage of cells that are CAR positive (CAR-NK cells [3]; [6]) [%] | living cell percentage (CAR-NK cells [4]; [5]) [%] | living cell percentage (CAR-NK cells [4]; [6]) [%] | living cell percentage (CAR-NK cells [4]; 72 h treatment prior to cryopreservation) [%] | cytotoxicity of thawed TCR-NK cells (chromium release after four hours) (U266 cells) |
| --- | --- | --- | --- | --- | --- | --- | --- | --- | --- | --- |
| CN1CCN(CCOc2cc(OC3CCOCC3)c3c(Nc4c(Cl)ccc5c4OCO5)ncnc3c2)CC1 [Saracatinib] | increased cytotoxicity | – | – | – | – | – | – | – | – | – |
| COc1cc(Nc2c(C#N)cnc3cc(OCCCN4CCN(C)CC4)c(OC)cc23)c(Cl)cc1Cl [Bosutinib] | – | increased cytotoxicity | – | – | – | – | – | – | – | – |
| Cc1nc(Nc2ncc(C(=O)Nc3c(C)cccc3Cl)s2)cc(N2CCN(CCO)CC2)n1 [Dasatinib] | increased cytotoxicity | increased cytotoxicity | 7987 | 64.9 | 4620 | 55.4 | 61.7 | 68.8 | 70.9 | increased cytotoxicity |
| Cc1cn(-c2cc(NC(=O)c3ccc(C)c(Nc4nccc(-c5cccnc5)n4)c3)cc(C(F)(F)F)c2)cn1 [Nilotinib] | increased cytotoxicity | increased cytotoxicity | – | – | – | – | – | – | – | – |
